Experimental data taken from publication PMC7734623 (Antiviral chemistry & chemotherapy, 2012).
≈ marks a conversion by molar mass, not a printed value. Counter-ions that a name gives are not always drawn. Like-named read-outs stand apart in the source and are kept apart here.

How the values were obtained:
[1] = system: severe acute respiratory syndrome (SARS) coronavirus (strain Urbani); assay: microbe, parasite or virus in culture; type: cell-based
[2] = in vitro; settings: African green monkey
[3] = system: HIV-1LAI; assay: HIV-1 replication reverse transcriptase assay in PBMC; type: cell-based, HIV type-1; settings: for anti-HIV-1 activity (in words): HIV-1LAI in human PBMC
[4] = in vitro; settings: human
[5] = system: primary human peripheral blood mononuclear cells
[6] = system: primary human peripheral blood mononuclear cells; assay: Cytotoxicity on PBMCs; settings: for CC50: experiment 1, PBMC
[7] = system: Madin–Darby canine kidney (MDCK) cells; settings: A/duck/Minnesota/1525/81 test
[8] = system: human parainfluenza virus type 3 (isolate 14702); assay: microbe, parasite or virus in culture; type: cell-based
[9] = system: A/Perth/16/2009 (seasonal H3N2); assay: microbe, parasite or virus in culture; type: cell-based, Influenza A virus (H3N2)
[10] = system: A/California/07/2009 (pandemic swine-origin H1N1); assay: microbe, parasite or virus in culture; type: cell-based, Influenza A virus (H1N1)
[11] = system: B/Florida/4/2006; assay: microbe, parasite or virus in culture; type: cell-based, Influenza B virus
[12] = system: A/duck/Minnesota/1525/81 (low pathogenic avian influenza H5N1); assay: microbe, parasite or virus in culture; type: cell-based, Influenza A virus (H5N1 low pathogenic)
[13] = Hydrolytic stability of DMSO stock solution under freezing–; settings: multiple freezing–(re-thawing) cycles
[14] = system: MA-104 embryonic African green monkey kidney epithelial cells
[15] = system: Vero 76 African green monkey kidney epithelial cells
[16] = system: A/Vietnam/1203/2004 (highly pathogenic avian influenza H5N1); assay: microbe, parasite or virus in culture; type: cell-based, Influenza A virus (H5N1 highly pathogenic)
[17] = in vitro; settings: dog
[18] = in vitro; settings: African green monkey; remark: listed apart in the source
[19] = Human immunodeficiency virus 1, PBMC, experiment 1, PBMC, 9: fresh DMSO stock
[20] = Human immunodeficiency virus 1, PBMC, experiment 2, PBMC, 9: fresh DMSO stock
[21] = experiment 1, PBMC, 9: fresh DMSO stock
[22] = experiment 1, PBMC, RT activity in supernatant, 9: fresh DMSO stock
[23] = experiment 2, PBMC, 9: fresh DMSO stock
[24] = experiment 1, DMSO stock after second FRC

Compound: CC(C)C[C@H](NC(=O)OCc1ccccc1)C(=O)NC(CCC(=O)N(C)C)C(=O)CF (mixture of isomers) [EP128533, (4RS)-4-[N-(benzyloxycarbonyl)-L-leucylamino]-6-fluoro-5-oxohexanoic acid N,N-dimethylamide, reference compound]
- EC50 ([1]; Severe acute respiratory syndrome-related coronavirus, Vero 76): 1.3 µg/mL
- CC50 [2]: > 100 µg/mL

Compound: NC12CC3CC(CC(C3)C1)C2 [1 ×HCl, 1-Adamantanammonium chloride, reference compound]
- anti-HIV-1 activity (in words) [3]: did not show any anti-HIV-1 activity
- EC90 [3, 19]: > 100 µM
- SI50 (selectivity index CC50/EC50) ([3]; experiment 1): >1.1
- CC50 [4]: > 100 µM

Compound: Cc1cn([C@H]2C[C@H](N=[N+]=[N-])[C@@H](CO)O2)c(=O)[nH]c1=O [AZT, 3′-azido-3′-deoxythymidine, reference compound]
- CC50 ([5]; human): > 100 µM
- EC90 [3, 19]: 0.031 µM
- EC50 [3, 20]: 0.0091 µM
- EC90 [3, 20]: 0.047 µM
- SI50 (selectivity index CC50/EC50) ([3]; experiment 1): >22,727
- SI50 (selectivity index CC50/EC50) ([3]; experiment 2): >10,989
- CC50 [4]: > 100 µM

Compound: CC(=NC12CC3CC(CC(C3)C1)C2)c1ccc(F)cc1 [Compound 4, 1-(4-Fluorophenyl)ethanone – tricyclo[3.3.1.1^3,7]dec-1-ylazanylidene (1:1)]
- CC50 [5]: > 100 µM
- anti-HIV-1 activity (in words) [3]: did not show any anti-HIV-1 activity
- EC90 [3, 21]: > 100 µM
- EC50 [3, 22]: > 100 µM

Compound: Nc1nc2ncc(CNc3ccc(C(=O)N[C@@H](CCC(=O)O)C(=O)O)cc3)nc2c(=O)[nH]1.O.O [Compound 8, L-folic acid dihydrate, reference compound]
- anti-HIV-1 activity (in words) [3]: did not show any anti-HIV-1 activity
- EC50 [3, 23]: > 100 µM
- EC90 [3, 23]: > 100 µM
- toxicity in PBMC (in words) [6]: exhibited toxicity
- CC50 [6]: 25.7 µM

Compound: O=C([O-])CC[C@H](NC(=O)c1ccc(NCc2cnc3nc([N-]c4nc5ncc(CNc6ccc(C(=O)N[C@@H](CCC(=O)[O-])C(=O)[O-])cc6)nc5c(=O)[nH]4)[nH]c(=O)c3n2)cc1)C(=O)[O-].[Na+].[Na+].[Na+].[Na+].[Na+] [Compound 10, Pentasodium (2S,2′S)-2,2′-{azanidediylbis[(4-{[(4-oxo-3,4-dihydropteridine-2,6-diyl)methyl]amino}benzoyl)amino]}dipentanedioate×3 H2O×2.5 acetone]
- anti-HIV-1 activity (in words) [3]: did not show any anti-HIV-1 activity
- EC90 [3, 21]: > 100 µM
- EC50 [3, 22]: > 100 µM
- CC50 [6]: > 100 µM

Compound: Nc1nc2ncc(CNc3ccc(C(=O)N[C@@H](CCC(=O)[O-])C(=O)[O-])cc3)nc2c(=O)[nH]1.O.O.O.O.[Na+].[Na+] [Compound 11, Disodium (2S)-2-(pteroylamino)pentanedioate×4 H2O]
- CC50 [5]: > 100 µM
- anti-HIV-1 activity (in words) [3]: did not show any anti-HIV-1 activity
- EC90 [3, 21]: > 100 µM
- EC50 [3, 22]: > 100 µM

Compound: Cl.O=C(CNC12CC3CC(CC(C3)C1)C2)c1ccc(F)cc1 [Compound 12, 1-(4-Fluorophenyl)-2-(tricyclo[3.3.1.1^3,7]dec-1-ylamino) ethanone hydrochloride×0.11 H2O]
- CC50 [7]: 35 µg/mL
- EC50 [8]: >49 µg/mL
- inhibition of virus replication (in words) [8]: did not inhibit
- CC50 [5]: > 100 µM
- inhibition of virus replication (in words) ([1]; SARS coronavirus): did not inhibit
- EC50 ([1]; Urbani, Vero 76 (130 CCID50), neutral red): 92 µg/mL
- EC50 [9]: >37 µg/mL
- inhibition of virus replication (in words) [9]: inactive
- EC50 [10]: >36 µg/mL
- inhibition of virus replication (in words) [10]: inactive
- EC50 [11]: >50 µg/mL
- inhibition of virus replication (in words) [11]: inactive
- inhibition of virus replication (in words) ([12]; A/duck/Minnesota/1525/81 (H5N1), amantadine-susceptible): did inhibit
- EC50 ([12]; A/duck/Minnesota/1525/81, MDCK (25 CCID50), neutral red): 0.95 µg/mL
- EC50 ([12]; low pathogenic H5N1 A/duck/Minnesota/1525/81): 2.92 µM
- activity of DMSO stock solution during multiple FRCs (in words) [13]: did not lose activity
- CC50 [14]: 49 µg/mL
- anti-HIV-1 activity (in words) [3]: did not show any anti-HIV-1 activity
- EC90 [3, 21]: > 100 µM
- EC50 [3, 22]: > 100 µM
- CC50 [15]: >100 µg/mL
- inhibition of virus replication (in words) ([16]; A/Vietnam/1203/2004): inactive
- EC50 ([16]; A/Vietnam/1203/2004, MDCK (≤42 CCID50), neutral red): 50 µg/mL

Compound: CCC(CC)O[C@@H]1C=C(C(=O)O)C[C@H](N)[C@H]1NC(C)=O [oseltamivir carboxylate, (3R,4R,5S)-4-(acetylamino)-5-amino-3-(pentan-3-yloxy)cyclohex-1-ene-1-carboxylic acid, reference compound]
- EC50 ([12]; Influenza A virus, H5N1, MDCK): 0.061 µg/mL
- CC50 [17]: > 10 µg/mL

Compound: NC(=O)c1ncn([C@@H]2O[C@H](CO)[C@@H](O)[C@H]2O)n1 [ribavirin, 1-β-D-ribofuranosyl-1H-1,2,4-triazole-3-carboxamide, reference compound]
- EC50 ([8]; Human respirovirus 3, MA104): 14 µg/mL (≈ 57.3 µM)
- EC50 ([9]; Influenza A virus, H3N2, MDCK): 2.9 µg/mL (≈ 11.9 µM)
- EC50 ([10]; Influenza A virus, H1N1, MDCK): 4.2 µg/mL (≈ 17.2 µM)
- EC50 ([11]; Influenza B virus, MDCK): 3.9 µg/mL (≈ 16 µM)
- EC50 ([12]; Influenza A virus, H5N1, MDCK): 5.4 µg/mL
- CC50 [18]: 190 µg/mL (≈ 778 µM)
- EC50 ([16]; Influenza A virus, H5N1, MDCK): 9.4 µg/mL (≈ 38.5 µM)
- CC50 [17]: > 100 µg/mL

Compound: [1,4-Bis(4-hydroxyphenyl)butane-1,4-dione – 1,4-bis(4-methoxyphenyl)butane-1,4-dione (7) – (2S,2′S)-2,2′-{[(tricyclo[3.3.1.1^3,7]dec-1-ylamino)methanediyl] bis(pteroylimino)}dipentanedioic acid (0.2:1:1)]×3 H2O×0.4 acetone [Compound 9]
- antiretroviral activity after first FRC (in words) ([3]; DMSO stock after first FRC): seriously affected
- antiretroviral activity after second FRC (in words) ([3]; DMSO stock after second FRC): completely lost
- anti-HIV-1 activity (in words) [3]: effective inhibitor
- EC90 ([3]; experiment 1, DMSO stock after first FRC): 57.7 µM
- EC50 ([3]; experiment 1, DMSO stock after first freezing-(re-thawing) cycle (FRC)): 32.7 µM
- EC50 [3, 24]: > 100 µM
- EC90 [3, 24]: > 100 µM
- EC90 [3, 21]: 34.2 µM
- EC50 [3, 22]: 3.5 µM
- EC50 [3, 23]: 10.8 µM
- EC90 [3, 23]: 34.8 µM
